PubChem BioAssay (NCI)
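Compound exposure: 48 hours, 5 concentrations, 96-well plates. GI50 is the concentration that inhibits growth by half. TGI: total growth inhibition.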

What was measured:
Assay in all cases: DTP human tumour cell line panel, 48 h
[1] = tested on: 786-0 renal
[2] = tested on: A498 renal
[3] = tested on: A549 NSCLC
[4] = tested on: ACHN renal
[5] = tested on: BT-549 breast
[6] = tested on: CAKI-1 renal
[7] = tested on: CCRF-CEM leukemia
[8] = tested on: COLO 205 colon
[9] = tested on: DU-145 prostate
[10] = tested on: EKVX NSCLC
[11] = tested on: HCC-2998 colon
[12] = tested on: HCT-116 colon
[13] = tested on: HCT-15 colon
[14] = tested on: HL-60(TB) leukemia
[15] = tested on: HOP-62 NSCLC
[16] = tested on: HOP-92 NSCLC
[17] = tested on: HS 578T breast
[18] = tested on: HT29 colon
[19] = tested on: IGROV1 ovarian
[20] = tested on: K-562 leukemia
[21] = tested on: KM12 colon
[22] = tested on: LOX IMVI melanoma
[23] = tested on: M14 melanoma
[24] = tested on: MALME-3M melanoma
[25] = tested on: MCF7 breast
[26] = tested on: MDA-MB-231 breast
[27] = tested on: MDA-MB-435
[28] = tested on: MOLT-4 leukemia
[29] = tested on: NCI-H226 lung
[30] = tested on: NCI-H23 lung
[31] = tested on: NCI-H460 lung
[32] = tested on: NCI-H522 lung
[33] = tested on: NCI/ADR-RES ovarian
[34] = tested on: OVCAR-3 ovarian
[35] = tested on: OVCAR-4 ovarian
[36] = tested on: OVCAR-5 ovarian
[37] = tested on: OVCAR-8 ovarian
[38] = tested on: RPMI-8226 leukemia
[39] = tested on: RXF 393 renal
[40] = tested on: SF-268 CNS
[41] = tested on: SF-295 CNS
[42] = tested on: SF-539 CNS
[43] = tested on: SK-MEL-2 melanoma
[44] = tested on: SK-MEL-28 melanoma
[45] = tested on: SK-MEL-5 melanoma
[46] = tested on: SK-OV-3 ovarian
[47] = tested on: SN12C renal
[48] = tested on: SNB-19 CNS
[49] = tested on: SNB-75 CNS
[50] = tested on: SR leukemia
[51] = tested on: SW-620 colon
[52] = tested on: T-47D breast
[53] = tested on: TK-10 renal
[54] = tested on: U251 CNS
[55] = tested on: UACC-257 melanoma
[56] = tested on: UACC-62 melanoma
[57] = tested on: UO-31 renal
[58] = tested on: PC-3 prostate

`Cn1ncc2c(Nc3ccc(Br)cc3)nc(Nc3ccc(Br)cc3)nc21` gave a GI50 [1] of 2.4 µM, a TGI [1] of 5.32 µM and a GI50 [2] of 2.68 µM. It also gave a TGI [2] of 9.9 µM, a GI50 [3] of 4.46 µM and a TGI [3] of 30.8 µM. The GI50 [4] was 3.74 µM, the TGI [4] was 13 µM and the GI50 [5] was 4.68 µM. It also gave a TGI [5] of 19.4 µM, a GI50 [6] of 1.87 µM and a TGI [6] of 4.49 µM. The GI50 [7] was 3.23 µM, the TGI [7] was 22 µM and the GI50 [8] was 1.65 µM. The TGI [8] was 3.2 µM, the GI50 [9] was 3.65 µM and the TGI [9] was 13 µM. For the same compound, the GI50 [10] was 2.48 µM, the TGI [10] was 9.73 µM and the GI50 [11] was 1.94 µM. The TGI [11] was 3.98 µM, the GI50 [12] was 3.22 µM and the TGI [12] was 11.9 µM. For the same compound, the GI50 [13] was 2.2 µM, the TGI [13] was 5.62 µM and the GI50 [14] was 1.44 µM. For the same compound, the TGI [14] was 5.85 µM, the GI50 [15] was 4.22 µM and the TGI [15] was 15.4 µM. It also gave a GI50 [16] of 1.66 µM, a TGI [16] of 5.23 µM and a GI50 [17] of 2.61 µM. The TGI [17] was 9.59 µM, the GI50 [18] was 2.03 µM and the TGI [18] was 4.32 µM. For the same compound, the GI50 [19] was 3.22 µM, the TGI [19] was 16.7 µM and the GI50 [20] was 1.59 µM. It also gave a TGI [20] of 4.3 µM, a GI50 [21] of 1.76 µM and a TGI [21] of 3.48 µM. The GI50 [22] was 1.77 µM, the TGI [22] was 3.36 µM and the GI50 [23] was 2.09 µM. For the same compound, the TGI [23] was 4.63 µM, the GI50 [24] was 3.32 µM and the TGI [24] was 14.7 µM. For the same compound, the GI50 [25] was 2.61 µM, the TGI [25] was 10.9 µM and the GI50 [26] was 1.8 µM. It also gave a TGI [26] of 3.68 µM, a GI50 [27] of 2.86 µM and a TGI [27] of 10.7 µM. For the same compound, the GI50 [28] was 0.346 µM, the TGI [28] was 5.23 µM and the GI50 [29] was 2.62 µM. For the same compound, the TGI [29] was 13.4 µM, the GI50 [30] was 3.63 µM and the TGI [30] was 16.2 µM. The GI50 [31] was 2.23 µM, the TGI [31] was 5.23 µM and the GI50 [32] was 3.44 µM. The TGI [32] was 15.7 µM, the GI50 [33] was 3.64 µM and the TGI [33] was 16.1 µM. For the same compound, the GI50 [34] was 3.95 µM, the TGI [34] was 12.3 µM and the GI50 [35] was 3.51 µM. The TGI [35] was 16.1 µM, the GI50 [36] was 11.3 µM and the TGI [36] was 24.1 µM. The GI50 [37] was 4.15 µM, the TGI [37] was 63.5 µM and the GI50 [38] was 2.4 µM. The TGI [38] was 8.87 µM, the GI50 [39] was 2.81 µM and the TGI [39] was 7.57 µM. The GI50 [40] was 5.11 µM, the TGI [40] was 15.8 µM and the GI50 [41] was 1.82 µM. For the same compound, the TGI [41] was 4.03 µM, the GI50 [42] was 3.17 µM and the TGI [42] was 10.8 µM. It also gave a GI50 [43] of 2.89 µM, a TGI [43] of 8.56 µM and a GI50 [44] of 5.09 µM. It also gave a TGI [44] of 17 µM, a GI50 [45] of 2.2 µM and a TGI [45] of 7.52 µM. The GI50 [46] was 10.9 µM, the TGI [46] was 23.5 µM and the GI50 [47] was 3.28 µM. It also gave a TGI [47] of 12.9 µM, a GI50 [48] of 6.42 µM and a TGI [48] of 18.9 µM. The GI50 [49] was 2.23 µM, the TGI [49] was 12.5 µM and the GI50 [50] was 1.69 µM. It also gave a TGI [50] of 5.21 µM, a GI50 [51] of 2.93 µM and a TGI [51] of 8.97 µM. It also gave a GI50 [52] of 2.7 µM, a TGI [52] of 14.6 µM and a GI50 [53] of 4.75 µM. For the same compound, the TGI [53] was 19 µM, the GI50 [54] was 2.89 µM and the TGI [54] was 10 µM. For the same compound, the GI50 [55] was 5.32 µM, the TGI [55] was 18.8 µM and the GI50 [56] was 2.32 µM. It also gave a TGI [56] of 6.82 µM, a GI50 [57] of 3.28 µM and a TGI [57] of 29 µM.

For `N#CC(c1ccc(O)cc1)N1CCN(C(C#N)c2ccc(O)cc2)CC1` (stereo unspecified), the TGI [1] was > 100 µM, the TGI [2] was > 100 µM and the TGI [3] was > 100 µM. The TGI [4] was > 100 µM, the TGI [5] was > 100 µM and the TGI [6] was > 100 µM. The TGI [7] was > 100 µM, the TGI [8] was > 100 µM and the TGI [9] was > 91.5 µM. For the same compound, the TGI [10] was > 76.1 µM, the TGI [11] was > 100 µM and the TGI [12] was > 100 µM. The TGI [13] was > 100 µM, the TGI [14] was > 100 µM and the TGI [15] was 57.1 µM. The TGI [16] was 60.1 µM, the TGI [17] was > 100 µM and the TGI [18] was > 100 µM. The TGI [19] was > 100 µM, the TGI [20] was > 100 µM and the TGI [21] was > 100 µM. The TGI [22] was > 100 µM, the TGI [23] was > 100 µM and the TGI [24] was > 100 µM. For the same compound, the TGI [25] was > 100 µM, the TGI [26] was 55.8 µM and the TGI [27] was > 100 µM. The TGI [28] was > 100 µM, the TGI [29] was > 77.6 µM and the TGI [30] was > 100 µM. The TGI [32] was > 100 µM, the TGI [33] was > 100 µM and the TGI [34] was > 100 µM. The TGI [35] was > 100 µM, the TGI [36] was > 100 µM and the TGI [37] was > 53.1 µM. For the same compound, the TGI [58] was > 100 µM, the TGI [38] was > 100 µM and the TGI [39] was > 92.5 µM. For the same compound, the TGI [40] was 64.4 µM, the TGI [41] was > 100 µM and the TGI [42] was > 100 µM. For the same compound, the TGI [43] was > 100 µM, the TGI [44] was > 100 µM and the TGI [45] was > 100 µM. The TGI [46] was > 100 µM, the TGI [47] was > 100 µM and the TGI [48] was 75.7 µM. For the same compound, the TGI [49] was 48.1 µM, the TGI [50] was > 100 µM and the TGI [51] was > 100 µM. For the same compound, the TGI [52] was > 82.9 µM, the TGI [53] was > 100 µM and the TGI [54] was 51.9 µM. The TGI [55] was > 100 µM, the TGI [56] was > 100 µM and the TGI [57] was > 100 µM.
